Results from US9789114B2, “Compounds as HIF-1α inhibitors and manufacturing process thereof” (DONGGUK UNIVERSITY INDUSTRY-ACADEMIC COOPERATION FOUNDATION, priority 2011, dated 2017).
Read-outs that look alike come from different tables or passages of the source.

Assays:
[1] = system: HIF-1α-mediated HRE transcriptional activity; test: Assay for inhibition of HIF-1α-mediated transcriptional activity (HRE reporter assay); assay type: cell-based, human; details: Homo sapiens, HCT-116, HCT116 cells, 12 hours under hypoxia (1% O2), read-out: Inhibitory activity against HIF-1α (10 μM)
Procedure: <Experiment 1> Assay for Inhibition of HIF-1α-Mediated Transcriptional Activity (HRE Reporter Assay)
The compounds can be developed as anti-cancer drugs, because the compounds inhibiting HIF-1α-mediated HRE transcriptional activity induced by hypoxia can suppress the growth and metastasis of cancer.
Inhibitory effects of the compounds according to the present invention, from Formula I-1 to I-42, on HIF-1α-mediated transcriptional activity were evaluated using this assay. pGL3-HRE-luciferase vector was constructed as follows. Six copies of HRE (Hypoxia Responsive Element, 5′-ACGTG-3′) from human VEGF genes were inserted into the multi-cloning site of a pGL3-basic vector (Promega). A luciferase gene was used as a reporter gene.
In detail, HCT116(ATCC #CCL-247) human colon cancer cells were seeded in 48-well cell culture plates. The cells were co-transfected with 25 ng of pGL3-HRE-luciferase and 2.5 ng of Renila control vectors using Polyfect reagent next day. After 24 hours of incubation, the cells were incubated for an additional 4 hours with replaced cell culture media. The cells were treated with various concentrations (0, 1, 3, 5, 10, and 20 μM) of the above compounds according to the present invention and incubated for 12 hours under hypoxia (1% O2, 94% N2, and 5% CO2). The luciferase assay was performed using a dual-luciferase reporter assay system (Promega). After cell lysate preparation with RIPA buffer, induced luciferase activity under hypoxic conditions was determined to examine inhibitory effects of the compounds according to the present invention, from Formula I-1 to I-42, on HIF-1α-mediated transcriptional activity.

[2] = Body weight change and side effects during 14 days of oral treatment in nude mice; assay type: in vivo, BALB/c nu/nu mice
Procedure: (§1) In vivo anti-cancer activity of the compounds according to the present invention, I-3, I-6, I-8, I-16, I-19, I-22, I-23, and I-24, was measured in mice to evaluate in vivo efficacy by oral administration. Specifically, the nude mice were divided into test groups and control groups, each consisting of 4 mice. In vivo efficacy was evaluated by measuring body weight, tumor volume, and tumor weight.
(§2) Female nude mice 6 weeks old (BALB/c nu/nu, Charles River) were bred in germ-free breeding rooms maintained at constant temperature and humidity. After the nude mice were anesthetized, HCT116 colon cancer cells were implanted at a count of […] cells/mouse into the rectum in BALB/c nu/nu mice and then the incisions were closed with surgical clips. The size of tumor was measured by a caliper. When the size of transplanted tumor reached to 50˜60 mm^3, the above compounds according to the present invention were administered. In more detail, after the above compounds in test groups were dissolved at concentration of 20 mg/kg in a solvent containing 80% of physiological saline, 10% of DMAC (dimethylacetamide), and 10% Tween 80 (hereinafter referred to as ‘Solvent A’), […] of dissolved compounds were orally administered once a day. Mice in control groups were treated with […] of Solvent A alone once daily.
(§3) Tumor volume and body weight were measured to identify in vivo anti-cancer activity of the compounds according to the present invention by repetitive oral administration. Tumor volume and tumor growth inhibition (TGI) in Table 2 were calculated according to the below Mathematic FIG. 1 and FIG. 2, respectively. Tumor growth inhibition was converted to a percentage in Table 2.
Moreover, severe side effects and statistically significant changes of body weight in all mice treated compounds were not shown for 14 days, comparing to control groups treated with vehicle. (Table 3)

[3] = system: HCT116 colon cancer cells; test: In vivo anti-cancer activity by oral administration, HCT116 tumor in nude mice; set-up: species or system BALB/c nu/nu mice; details: for inhibition in vivo at 20 mg/kg: Mus musculus
Procedure: <Example 4> In Vivo Anti-Cancer Activity of Compounds by Oral Administration
as §1, §2, §3

GAPDH = GAPDH expression level (internal control) in western blot, HCT116 cells; assay type: cell-based, human; details: HCT116, hypoxia 1% O2, 0-30 μM, 12 hours, FIG. 1
Procedure: (§4) First, HCT116 human colon cancer cells (ATCC #CCL-247) were plated at the concentration of 2×10^5 cells/ml. After 24 hours, the cells were incubated under hypoxia (1% O2, 94% N2, and 5% CO2, expressed as 1% O2 in FIG. 1) for 4 hours in order to induce HIF-la accumulation. Cells were treated with the compounds at various concentrations (0, 3, 10, 20, and 30 μM) for 12 hours under hypoxia. The cells were then harvested, and lysed in RIPA buffer to obtain nuclear extracts. Cells grown at 20% O2 (normoxia) were used as control groups to compare HIF-1α-mediated gene expression under each condition. 30 μg of the nuclear extracts per sample was separated by SDS-PAGE (sodium dodecyl sulfate-polyacrylamide gel electrophoresis), and was then transferred to PVDF (polyvinylidene fluoride membrane) membranes. After membranes were probed with HIF-1α antibodies (R&D System), HIF-1α proteins were detected with HRP-conjugated secondary antibodies (Amersham-Pharmacia). GAPDH (Glyceraldehyde 3-phosphate dehydrogenase) was used as an internal control for loading in western blot analysis.

HIF-1α = target: T1, HIF-1α (Homo sapiens, UniProt Q16665); test: Inhibition of hypoxia-induced HIF-1α accumulation, western blot in HCT116 cells; assay type: cell-based; details: HCT116, hypoxia 1% O2, 0-30 μM, 12 hours, FIG. 1
T1 construct: endogenous in cells; host or cells: HCT116 human colon cancer cells (ATCC #CCL-247)
T1 sequence (Q16665 whole entry): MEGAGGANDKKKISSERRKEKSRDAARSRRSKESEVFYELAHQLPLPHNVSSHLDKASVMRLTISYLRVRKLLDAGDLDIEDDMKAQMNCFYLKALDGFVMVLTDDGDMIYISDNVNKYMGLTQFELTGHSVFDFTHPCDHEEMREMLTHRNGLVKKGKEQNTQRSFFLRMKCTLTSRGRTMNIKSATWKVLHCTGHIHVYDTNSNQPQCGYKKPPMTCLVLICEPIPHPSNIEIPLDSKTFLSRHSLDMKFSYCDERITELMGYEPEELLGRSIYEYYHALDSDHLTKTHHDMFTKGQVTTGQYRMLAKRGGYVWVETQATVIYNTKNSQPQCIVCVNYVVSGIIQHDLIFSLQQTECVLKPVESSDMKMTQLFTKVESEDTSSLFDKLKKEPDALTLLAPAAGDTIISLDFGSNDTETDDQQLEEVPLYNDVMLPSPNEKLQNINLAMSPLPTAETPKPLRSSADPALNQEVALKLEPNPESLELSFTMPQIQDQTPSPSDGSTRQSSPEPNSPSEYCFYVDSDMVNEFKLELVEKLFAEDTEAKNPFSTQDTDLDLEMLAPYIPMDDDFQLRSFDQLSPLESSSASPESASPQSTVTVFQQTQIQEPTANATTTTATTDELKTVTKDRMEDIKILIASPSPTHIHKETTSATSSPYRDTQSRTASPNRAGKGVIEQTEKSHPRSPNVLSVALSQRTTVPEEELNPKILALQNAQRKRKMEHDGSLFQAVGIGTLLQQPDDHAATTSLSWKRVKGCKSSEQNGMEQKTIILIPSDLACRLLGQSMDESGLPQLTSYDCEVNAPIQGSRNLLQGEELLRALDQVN
Procedure: <Experiment 2> In Vitro Studies for Inhibition of Hypoxia-Induced HIF-1α Accumulation
Inhibition of HIF-1α accumulation by the compounds according to the present invention was determined in HCT116 human colon cancer cells. In particular, western blot analysis was used to identify the compounds, I-3, I-6, I-8, I-16, I-19, I-22˜I-24, and I-27˜I-36, which inhibited HIF-1α accumulation under hypoxia.
as §4

[4] = system: Chick embryo chorioallantoic membrane; test: CAM (chick embryo chorioallantoic membrane) assay; assay type: in vivo; details: 10-20 μg on coverslip, 2 days, FIG. 2
Procedure: CAM (Chick embryo chorioallantoic membrane) assay was conducted as an in vivo model to determine whether the compounds according to the present invention, I-3, I-6, I-19, and I-22, had anti-angiogenic effects or not. DMSO-treated groups were used as negative controls.
According to the present invention, CAM assay was performed as follows.
Fertilized eggs were incubated periodically rolling at 37° C. with 50% humidity for 2-3 days. When eggs were erected, approximately 3 ml of albumin was extracted from the sharp edge of the eggs using a syringe. The hole of the eggs was sealed with a tape to prevent from dryness and contamination, and the hole of the eggs was put down and incubated for 2 to 3 days. After punching a hole with 1.5 cm diameter in the round part of eggs, opaque membrane was removed carefully. The compounds (10-20 μg) according to the present invention were placed and spread on thermanox coverslip equally to dry, and then the hole in the round part of eggs put on the upper part of the fertilized eggs that vessels grew. The eggs were examined under the dissecting microscope and the results were given in FIG. 2, after covering the hole with a coverglass to protect it from contamination for 2 days.

[5] = day 0, 20 mg/kg oral once a day
[6] = day 3, 20 mg/kg oral once a day
[7] = day 5, 20 mg/kg oral once a day
[8] = day 7, 20 mg/kg oral once a day
[9] = day 10, 20 mg/kg oral once a day
[10] = day 12, 20 mg/kg oral once a day
[11] = day 14, 20 mg/kg oral once a day
[12] = HCT-116, 72 h, day 3, 20 mg/kg oral once a day, read-out: TGI (tumor growth inhibition), tumor volume
[13] = HCT-116, 120 h, day 5, 20 mg/kg oral once a day, read-out: TGI (tumor growth inhibition), tumor volume
[14] = HCT-116, 168 h, day 7, 20 mg/kg oral once a day, read-out: TGI (tumor growth inhibition), tumor volume
[15] = HCT-116, 240 h, day 10, 20 mg/kg oral once a day, read-out: TGI (tumor growth inhibition), tumor volume
[16] = HCT-116, 288 h, day 12, 20 mg/kg oral once a day, read-out: TGI (tumor growth inhibition), tumor volume
[17] = HCT-116, 336 h, day 14, 20 mg/kg oral once a day, read-out: TGI (tumor growth inhibition), tumor volume
[18] = HCT-116, 336 h, day 14, 20 mg/kg oral once a day, read-out: TGI (tumor growth inhibition), tumor weight

## Cc1cc(C23CC4CC(CC(C4)C2)C3)ccc1OCC(=O)N1CC[N+](C)(C)CC1.[I-] [Compound I-16, 4-(2-(4-(Adamantan-1-yl)-2-methylphenoxy)acetyl)-1,1-dimethylpiperazin-1-ium iodide]
[1]
  inhibition at 10 µM: 51 to 75%
[2]; [5]
  Body weight change: 100.0 ± 0.0%
[2]; [6]
  Body weight change: 104.1 ± 1.6%
[2]; [7]
  Body weight change: 104.2 ± 2.8%
[2]; [8]
  Body weight change: 104.3 ± 1.9%
[2]; [9]
  Body weight change: 105.8 ± 4.2%
[2]; [10]
  Body weight change: 103.2 ± 3.6%
[2]; [11]
  Body weight change: 102.3 ± 3.7%
[3]; [12]
  inhibition in vivo at 20 mg/kg: 28.6%
[3]; [13]
  inhibition in vivo at 20 mg/kg: 27.8%
[3]; [14]
  inhibition in vivo at 20 mg/kg: 27.9%
[3]; [15]
  inhibition in vivo at 20 mg/kg: 28.8%
[3]; [16]
  inhibition in vivo at 20 mg/kg: 28.6%
[3]; [17]
  inhibition in vivo at 20 mg/kg: 29.2%
[3]; [18]
  inhibition in vivo at 20 mg/kg: 30.2%
[3]; [6]
  Tumor volume: 24.2 ± 6.1 mm^3
[3]; [7]
  Tumor volume: 66.7 ± 14.2 mm^3
[3]; [8]
  Tumor volume: 125.8 ± 13.6 mm^3
[3]; [9]
  Tumor volume: 185.7 ± 20.2 mm^3
[3]; [10]
  Tumor volume: 320.4 ± 33.9 mm^3
[3]; [11]
  Tumor volume: 471.8 ± 26.0 mm^3
  Tumor weight: 1655.7 ± 288.4 mg
GAPDH
  GAPDH expression levels: did not affect GAPDH expression levels
HIF-1α
  HIF-1α degradation: promoted HIF-1α degradation
  inhibitory effects on HIF-1α accumulation: significant inhibitory effects on HIF-1α accumulation

## C[N+]1(C)CCN(C(=O)CCCOc2ccc(C34CC5CC(CC(C5)C3)C4)cc2)CC1.[I-] [Compound I-22, 4-(4-(4-(Adamantan-1-yl)phenoxy)butanoyl)-1,1-dimethylpiperazin-1-ium iodide]
[1]
  inhibition at 10 µM: 51 to 75%
[2]; [5]
  Body weight change: 100.0 ± 0.0%
[2]; [6]
  Body weight change: 104.1 ± 3.5%
[2]; [7]
  Body weight change: 104.1 ± 4.6%
[2]; [8]
  Body weight change: 104.1 ± 3.3%
[2]; [9]
  Body weight change: 105.6 ± 5.1%
[2]; [10]
  Body weight change: 103.8 ± 3.6%
[2]; [11]
  Body weight change: 102.7 ± 4.1%
[4]
  formation of vessels (anti-angiogenic effect): inhibited formation of vessels
[3]; 20 mg/kg oral once a day, 14 days
  inhibitory effects on tumor growth (TGI results): significant inhibitory effects on tumor growth
[3]; [12]
  inhibition in vivo at 20 mg/kg: 39.8%
[3]; [13]
  inhibition in vivo at 20 mg/kg: 40.8%
[3]; [14]
  inhibition in vivo at 20 mg/kg: 43.4%
[3]; [15]
  inhibition in vivo at 20 mg/kg: 45.1%
[3]; [16]
  inhibition in vivo at 20 mg/kg: 45.1%
[3]; [17]
  inhibition in vivo at 20 mg/kg: 47.8%
[3]; [18]
  inhibition in vivo at 20 mg/kg: 49.5%
[3]; [6]
  Tumor volume: 20.4 ± 1.1 mm^3
[3]; [7]
  Tumor volume: 54.7 ± 2.8 mm^3
[3]; [8]
  Tumor volume: 98.9 ± 4.8 mm^3
[3]; [9]
  Tumor volume: 143.1 ± 6.2 mm^3
[3]; [10]
  Tumor volume: 246.4 ± 10.8 mm^3
[3]; [11]
  Tumor volume: 347.6 ± 11.8 mm^3
  Tumor weight: 1197.3 ± 156.3 mg
HIF-1α
  inhibitory effects on HIF-1α accumulation: significant inhibitory effects on HIF-1α accumulation
